These results are taken from patent US20240287062A1, “NAPHTHYRIDONE COMPOUNDS FOR INHIBITION OF RAF KINASES AND/OR BCR-ABL TYROSINE KINASES” (Enliven Inc., priority 2021, published 2024).

What all share (type): cell-based
Series [1] concerns phosphorylated ERK (pERK). Put plainly: Detection of phosphorylated ERK (pERK), AlphaLISA in A375 cells. The settings on record: four hours incubation, inhibition of ERK phosphorylation, read-out: PERK ELISA (IC50). The protocol: A375 cells were counted and seeded at 10,000 cells/well in 384 well plates (Corning 3764) and allowed to adhere overnight.
Compounds were dissolved and serially diluted in DMSO. The compounds were then added, mixed, and incubated for four hours at 37° C., 5% CO2. Compounds were added using four-fold dilutions at final concentrations ranging from 10 μM to 0.01 nM. DMSO only and 10 uM staurosporine were added as high and low controls.
Following the four-hour incubation with compounds, cell lysates were prepared and AlphaLISA assay measuring phosphorylated ERK was performed. Media was removed using the Apricot Designs pipettor. Lysis buffer was made from 1× AlphaLISA SureFire Assay Kit (AlphaLISA SureFire Ultra pERK 12 (Thr202/Tyr204) ALSU-PERK-A50K) lysis buffer with protease and phosphatase inhibitors. Cells were lysed by adding 10 uL to all the wells and mixed for 40 minutes on a plate shaker. 10 uL cell lysate was transferred to a new Optiplate (PerkinElmer 6007290) and incubated with 5 uL 1× acceptor mix for 2 hours in the dark. 5 uL of 1× donor mix was added to all wells and mixed by shaking followed by overnight incubation in the dark.
pERK AlphaLISA signal was read on the Envision using standard AlphaLISA settings. Percent inhibition of ERK phosphorylation was calculated by % Inhibition=100×(LumHC−LumSample)/(LumHC−LumLC). The low and high controls (LC/HC) are generated from lysate from wells with cells treated with DMSO or […] Staurosporine (BioAustralis, cat #BIA-S1086), […]. IC50 values were calculated by fitting the Curve using XLfit (v5.3.1.3), equation 201: Y=Bottom+(Top−Bottom)/(1+10^((Log IC50−X)*HillSlope)).
(In Alpha technology, singlet oxygen from a donor bead excites a nearby acceptor bead.)

Another series concerns K562 cells. Briefly: Cell viability assay (CellTiter Glo). The settings on record: K562 cells grown as in Example B1, read-out: BRAF Cytotoxicity (IC50, nM) K562. The protocol: K562 cells, cultured in Iscove's Modified Dulbecco's Media (IMDM) supplemented with 10% FBS, were harvested at 50-80% confluency and plated at 2,000 cells per well in 384-well tissue culture plates. A subset of wells contained media only (low control, LC). Compounds were serially diluted in DMSO. 40 nL of compound or DMSO only (high control, HC) were added to each well using an Echo 550 liquid handler (Labcyte). The plates were placed in a 37° C. incubator with 5% CO2 for 72 hours. Cell viability was measured using a CellTiter-Glo luminescent cell viability assay (Promega), which allows for relative quantification of metabolically active cells by luminescence-based measurements of intracellular ATP concentrations. Briefly, plates were removed from the incubator and equilibrated for 15 minutes at room temperature prior to the addition of 40 μL of CellTiter-Glo reagent. Plates were then incubated for 30 minutes at room temperature. Luminescence was measured using an EnSpire plate reader (Perkin Elmer). As noted above, luminescence values from wells with DMSO only or media without cells were used as high and low controls (HC and LC), respectively. Normalized percent viability was calculated as follows: percent viability=100×(LumSample−LumLC)/(LumHC−LumLC). IC50 values were calculated using the XLFit software.
(§1) Cell viability was measured in the following MAPK pathway mutant cancer cell lines: A375 (BRAF V600E), HepG2 (NRAS Q61L), SK-MEL-30 (NRAS Q61K), and OCI-AML-2 (MBNL1-CRAF fusion). Cell viability was also measured in K562 cells.
(§2) Table 6 provides the growth media, number of cells seeded per well and drug treatment times for the each cell line. K562 cells were grown as described in Example B1 above.
(§3) Compounds were dissolved in DMSO and serially diluted. Serially-diluted compound or a DMSO only control (high control, “HC”) was added to the plated cells in each well. Compounds were tested at concentrations of about 10 μM to 0.51 nM, using three-fold dilutions. The final proportion of DMSO never exceeded 0.1%.
(§4) Plates were placed in a 37° C., […] incubator for the indicated treatment times (Table B1). Plates were then removed from the incubator and equilibrated for 15 minutes at room temperature. 40 μl of CellTiter Glo reagent (Promega) was added to measure the relative level of metabolically active cells by quantifying intracellular ATP concentrations. Plates were incubated for 30 minutes at room temperature, and luminescence was measured. Percent viability was normalized to a vehicle control only using the following formula: 0 viability=100×(LumSample−LumLC)/(LumHC−LumLC). Graphical curves were fitted using a nonlinear regression model with a sigmoidal dose response.
(In general: Cellular ATP, detected with luciferase, serves as a proxy for viable cell number.)

In the next series the test system is A375 (BRAF V600E). Put plainly: Cell viability assay (CellTiter Glo). The method, then:
as §1
(§5) A375, HepG2, SK-MEL-30 and OCI-AML-2 cells were grown in the appropriate growth medium as described in Table B2 below, and harvested at 50-80% confluence. Cells were counted and seeded at their appropriate density (see Table B1) in a 384-well plate (Corning 3570). A375, HepG2 and SK-MEL-30 were allowed to adhere overnight prior to treatment and the OCI-AML-2 were treated immediately for the indicated drug treatment times (Table 6).
as §2, §3, §4

In another series the test system is HepG2 (NRAS Q61L). Put plainly: Cell viability assay (CellTiter Glo). The settings on record: HepG2, 750 cells per well, read-out: BRAF Cytotoxicity (IC50, nM) HEPG2. The method, then: as §1, §5, §2, §3, §4
The subject of a further series is SK-MEL-30 (NRAS Q61K). Put plainly: Cell viability assay (CellTiter Glo). Conditions: SK-MEL-30, 750 cells per well, read-out: BRAF Cytotoxicity (IC50, nM) SK-MEL-30. The protocol:
as §1, §5, §2, §3, §4

Series [2] has as its system OCI-AML-2 (MBNL1-CRAF fusion). Put plainly: Cell viability assay (CellTiter Glo). Conditions: OCI-AML-2, 1000 cells per well, read-out: BRAF Cytotoxicity (IC50, nM) OCI-AML-2. The method, then: as §1, §5, §2, §3, §4
Setting [3] is: Homo sapiens, A-375, 72 h, A375, 250 cells seeded per well, read-out: BRAF Cytotoxicity (IC50, nM) A375 (250 cells).
Where [4] appears, read: Homo sapiens, A-375, 72 h, A375, 1000 cells seeded per well, read-out: BRAF Cytotoxicity (IC50, nM) A375 (1000 cells).
Setting [5] is: A375, 250 cells seeded per well, 72 hours, read-out: BRAF Cytotoxicity (IC50, nM) A375 (250 cells).
Setting [6] is: A375, 1000 cells seeded per well, 72 hours, read-out: BRAF Cytotoxicity (IC50, nM) A375 (1000 cells).

Read-outs that look alike come from different tables or passages of the source. Bounds are passed on as bounds.

`CC[C@H](O)c1cc(C)c(-c2cc3cnc(NC(=O)[C@H]4C[C@H]4F)cc3n(C)c2=O)cn1` [Compound 108, (1R,2R)-2-fluoro-N-(3-(6-((S)-1-hydroxypropyl)-4-methylpyridin-3-yl)-1-methyl-2-oxo-1,2-dihydro-1,6-naphthyridin-7-yl)cyclopropane-1-carboxamide]: the IC50 stood at 17.4 nM in series [1] (Homo sapiens, A-375, 4 h); 1980 nM with K562 cells (Homo sapiens); 422 nM with A375 (BRAF V600E) (setting [3]); 308 nM with A375 (BRAF V600E) (setting [4]); 88.7 nM in the series on HepG2 (NRAS Q61L) (Homo sapiens, HepG2, 120 h); 311 nM in the series with SK-MEL-30 (NRAS Q61K) (Homo sapiens, SK-MEL-30, 120 h). The IC50 in series [2] (Homo sapiens, OCI-AML2, 72 h) came to 309 nM.

For `CCCC(O)c1cc(C)c(-c2cc3cnc(NC(=O)[C@H]4C[C@H]4F)cc3n(C)c2=O)cn1` (single isomer, unassigned) [Example S43, Isomer A], the half-inhibitory concentration (IC50) in series [1] (Homo sapiens, A-375, 4 h) came to 8.01 nM; in the series with K562 cells (Homo sapiens), 1690 nM; with A375 (BRAF V600E) (setting [5]), 152 nM; in the series on A375 (BRAF V600E) (setting [6]) it was 52.1 nM; with HepG2 (NRAS Q61L) (120 hours) it was 82.1 nM; in the series with SK-MEL-30 (NRAS Q61K) (120 hours) it was 399 nM. Further, in series [2] (72 hours), the half-maximal inhibitory concentration (IC50) turned out to be 457 nM.

`CCC(O)c1cc(C)c(-c2cc3cnc(NC(C)=O)cc3n(C)c2=O)cn1` (single isomer, unassigned) [Example S59, Enantiomer A, N-(3-(6-(1-hydroxypropyl)-4-methylpyridin-3-yl)-1-methyl-2-oxo-1,2-dihydro-1,6-naphthyridin-7-yl)acetamide]: the figures for the half-maximal inhibitory concentration (IC50) (in series [1]; with K562 cells (Homo sapiens)) were 78.5 nM and above 10000 nM, respectively.

Consider `CCC(O)c1cc(C)c(-c2cc3cnc(NC(=O)[C@H]4CC4(F)F)cc3n(C)c2=O)cn1` (single isomer, unassigned) [Example S49, Isomer B], for which the IC50 in series [1] came out at 8.64 nM; with K562 cells (Homo sapiens), 733 nM; in the series with A375 (BRAF V600E) (setting [3]), 74.9 nM; in the series on HepG2 (NRAS Q61L) (120 hours) it was 12.6 nM; in the series on SK-MEL-30 (NRAS Q61K) (120 hours), 103 nM; in series [2] (72 hours) it was 153 nM.

As to `CCCC(O)c1cc(C)c(-c2cc3cnc(NC(=O)[C@H]4C[C@H]4F)cc3n(C)c2=O)cn1` (single isomer, unassigned) [Example S43, Isomer B], the IC50 was 14.7 nM in series [1]; 335 nM in the series with A375 (BRAF V600E) (setting [5]); 189 nM in the series with A375 (BRAF V600E) (setting [6]); 843 nM in the series with HepG2 (NRAS Q61L) (120 hours); above 6150 nM in the series with SK-MEL-30 (NRAS Q61K) (120 hours); 2710 nM in series [2] (72 hours).

With `CCCC(O)c1cc(C)c(-c2cc3cnc(NC(C)=O)cc3n(C)c2=O)cn1` (single isomer, unassigned) [Example S67, Enantiomer A, N-(3-{6-[1-hydroxybutyl]-4-methylpyridin-3-yl}-1-methyl-2-oxo-1,6-naphthyridin-7-yl)acetamide], the half-maximal inhibitory concentration (IC50) in series [1] was 7.23 nM; in the series on K562 cells (Homo sapiens), 9480 nM; with A375 (BRAF V600E) (setting [3]) it was 215 nM; with HepG2 (NRAS Q61L) (Homo sapiens, HepG2, 120 h), 252 nM; with SK-MEL-30 (NRAS Q61K) (Homo sapiens, SK-MEL-30, 120 h), 974 nM; in series [2] (Homo sapiens, OCI-AML2, 72 h) it was 1390 nM.

`CC[C@H](O)c1cc(C)c(-c2cc3cnc(NC(=O)C4CC4)cc3n(C)c2=O)cn1` [Compound 69, N-(3-[6-[(1S)-1-hydroxypropyl]-4-methylpyridin-3-yl]-1-methyl-2-oxo-1,6-naphthyridin-7-yl)cyclopropanecarboxamide]: the 50% inhibitory concentration (IC50) in series [1] (Homo sapiens, A-375, 4 h) came out at 43.1 nM; in the series on K562 cells (Homo sapiens), 496 nM; in the series with A375 (BRAF V600E) (setting [3]), 372 nM; in the series with A375 (BRAF V600E) (setting [4]), 354 nM; in the series on HepG2 (NRAS Q61L) (Homo sapiens, HepG2, 120 h) it was 107 nM; in the series on SK-MEL-30 (NRAS Q61K) (Homo sapiens, SK-MEL-30, 120 h) it was 517 nM. The half-maximal inhibitory concentration (IC50) in series [2] (Homo sapiens, OCI-AML2, 72 h) came out at 485 nM.

For `CCC(=O)c1cc(C)c(-c2cc3cnc(NC(=O)[C@H]4C[C@H]4F)cc3n(C)c2=O)cn1` [Compound 148, (1R,2R)-2-fluoro-N-(1-methyl-3-(4-methyl-6-propionylpyridin-3-yl)-2-oxo-1,2-dihydro-1,6-naphthyridin-7-yl)cyclopropane-1-carboxamide], the IC50 in series [1] (Homo sapiens, A-375, 4 h) was found to be 19.3 nM; in the series with K562 cells (Homo sapiens), 2640 nM.

On to `CCCC(=O)c1cc(C)c(-c2cc3cnc(NC(=O)[C@H]4C[C@H]4F)cc3n(C)c2=O)cn1` [Compound 151, (1R,2R)—N-(3-(6-butyryl-4-methylpyridin-3-yl)-1-methyl-2-oxo-1,2-dihydro-1,6-naphthyridin-7-yl)-2-fluorocyclopropane-1-carboxamide], for which the IC50 in series [1] (Homo sapiens, A-375, 4 h) was determined as 10.4 nM; in the series with HepG2 (NRAS Q61L) (Homo sapiens, HepG2, 120 h) it was 37.3 nM; with SK-MEL-30 (NRAS Q61K) (Homo sapiens, SK-MEL-30, 120 h) it was 244 nM; in series [2] (Homo sapiens, OCI-AML2, 72 h), 448 nM.

Regarding `CCC(O)c1cc(C)c(-c2cc3cnc(NC(=O)[C@@H]4C[C@@H]4F)cc3n(C)c2=O)cn1` (single isomer, unassigned; isomer a) [Example S40, Isomer A], the IC50 in series [1] stood at 47.4 nM; with K562 cells, 1230 nM; in the series on A375 (BRAF V600E) (setting [6]) it was 492 nM; in the series on HepG2 (NRAS Q61L) (120 hours) it was 211 nM; in the series with SK-MEL-30 (NRAS Q61K) (120 hours), 446 nM; in series [2] (72 hours) it was 496 nM.

With `CCCC(=O)c1cc(C)c(-c2cc3cnc(NC(=O)[C@@H]4C[C@@H]4F)cc3n(C)c2=O)cn1` [Compound 152, (1S,2S)—N-(3-(6-butyryl-4-methylpyridin-3-yl)-1-methyl-2-oxo-1,2-dihydro-1,6-naphthyridin-7-yl)-2-fluorocyclopropane-1-carboxamide], the IC50 in series [1] (Homo sapiens, A-375, 4 h) is 8.99 nM; with K562 cells (Homo sapiens), 534 nM; with A375 (BRAF V600E) (setting [3]), 116 nM; in the series with HepG2 (NRAS Q61L) (Homo sapiens, HepG2, 120 h) it was 257 nM; with SK-MEL-30 (NRAS Q61K) (Homo sapiens, SK-MEL-30, 120 h), 585 nM; in series [2] (Homo sapiens, OCI-AML2, 72 h) it was 412 nM.

Usually IC50 stands for the concentration that inhibits the measured activity by half.
